Reference: patent US20180280377A1, “Imidazo[4,5-c]quinolin-2-one Compounds and Their Use in Treating Cancer” (ASTRAZENECA AB, priority 2015, published 2018)

Key:
Type in all cases: cell-based
ATR = biological target: T1, ATR (Homo sapiens, UniProt Q13535); experiment: ATR cellular potency assay (pChk1 Ser345 in HT29 cells after 4NQO); details: pChk1 (Ser 345); Table 2; read-out: Assay b) ATR Cell IC50
T1 construct: endogenous in cells; host or cells: HT29 cells (ECACC #85061109)
Experimental: (§1) The following assays were used to measure the effects of the compounds of the present invention: a) ATM cellular potency assay; b) PI3K cellular potency assay; c) mTOR cellular potency assay; d) ATR cellular potency assay. During the description of the assays, generally: • i. […] IC50 values were calculated using a smart fitting model in Genedata.
ATR is a PI3-kinase-related kinase which phosphorylates multiple substrates on serine or threonine residues in response to DNA damage during or replication blocks. Chk1, a downstream protein kinase of ATR, plays a key role in DNA damage checkpoint control. Activation of Chk1 involves phosphorylation of Ser317 and Ser345 (the latter regarded as the preferential target for phosphorylation/activation by ATR).
The following morning compound of Formula (I) in 100% DMSO were added to assay plates by acoustic dispensing. After 1 h incubation at 37° C. and 5% CO2, 40 nl of 3 mM 4NQO in 100% DMSO was added to all wells by acoustic dispensing, except minimum control wells which were left untreated with 4NQO to generate a null response control. Plates were returned to the incubator for a further 1 h. Then cells were fixed by adding 20 μl of 3.7% formaldehyde in PBS solution and incubating for 20 mins at r.t. Then […] of 0.1% Triton X100 in PBS was added and incubated for 10 minutes at r.t., to permeabalise cells. Then the plates were washed once with […] PBS, using a Biotek EL405 plate washer.
After 2 h incubation at r.t., the plates were washed three times with […] PBS, using a Biotek EL405 plate washer, and plates were then sealed with black plate seals until read. Plates were read using an ArrayScan VTI instrument, using an XF53 filter with 10× objective.

mTOR = biological target: T2, mTOR (Homo sapiens, UniProt P42345); experiment: mTOR cellular potency assay (phospho-AKT Ser473 in MDA-MB-468 cells); details: MDA-MB-468 cells, 2 h, phospho-AKT Ser473; Table 2; read-out: Assay d) mTOR Cell IC50
T2 construct: phosphorylation of the Akt protein at Ser473 (AKT lies downstream of PI3Kα in the signal transduction pathway) in the MDA-MB-468 cells; endogenous in cells; host or cells: MDA-MB-468 cells (ATCC HTB 132)
From the text: The following assays were used to measure the effects of the compounds of the present invention: a) ATM cellular potency assay; b) PI3K cellular potency assay; c) mTOR cellular potency assay; d) ATR cellular potency assay. During the description of the assays, generally: • i. The following abbreviations have been used: 4NQO=4-Nitroquinoline N-oxide; Ab=Antibody; BSA=Bovine Serum Albumin; CO2=Carbon Dioxide; DMEM=Dulbecco's Modified Eagle Medium; DMSO=Dimethyl Sulphoxide; EDTA=Ethylenediaminetetraacetic Acid; EGTA=Ethylene Glycol Tetraacetic Acid; ELISA=Enzyme-linked Immunosorbent Assay; EMEM=Eagle's Minimal Essential Medium; FBS=Foetal Bovine Serum; h=H(s); HRP=Horseradish Peroxidase; i.p.=intraperitoneal; PBS=Phosphate buffered saline; PBST=Phosphate buffered saline/Tween; TRIS=Tris(Hydroxymethyl)aminomethane; MTS reagent: [3-(4,5-dimethylthiazol-2-yl)-5-(3-carboxymethoxyphenyl)-2-(4-sulfophenyl)-2H-tetrazolium, inner salt, and an electron coupling reagent (phenazine methosulfate) PMS; s.c. sub-cutaneously. • ii. IC50 values were calculated using a smart fitting model in Genedata.
This assay was used to measure mTOR inhibition in cells. The aim of the phospho-AKT cell based mechanism of action assay using the Acumen Explorer is to identify inhibitors of either PI3Kα or mTOR-Rictor (Rapamycin insensitive companion of mTOR). This is measured by any decrease in the phosphorylation of the Akt protein at Ser473 (AKT lies downstream of PI3Kα in the signal transduction pathway) in the MDA-MB-468 cells following treatment with compound.
MDA-MB-468 cells (human breast adenocarcinoma #ATCC HTB 132) were seeded at 1500 cells/well in 40 μl of DMEM containing 10% FBS and 1% glutamine into Greiner 384 well black flat-bottomed plates. Cell plates were incubated for 18 h in a 37° C. incubator before dosing with compounds of Formula (I) in 100% DMSO using acoustic dispensing. Compounds were dosed in a 12 point concentration range into a randomised plate map. Control wells were generated either by dosing of 100% DMSO (max signal) or addition of a reference compound (a PI3K-62 inhibitor) that completely eliminated the pAKT signal (min control). Plates were incubated at 37° C. for 2 h; cells were then fixed by the addition of […] of a 3.7% formaldehyde solution. After 30 minutes the plates were washed with PBS using a Tecan PW384 plate washer. Wells were blocked and cells permeabilised with the addition of 40 μl of PBS containing 0.5% Tween20 and 1% Marvel™ (dried milk powder) and incubated for 60 minutes at r.t. The plates were washed with PBS containing 0.5% (v/v) Tween20 and 20 μl rabbit anti-phospho AKT Ser473 (Cell Signalling Technologies, #3787) in same PBS-Tween+1% MarvelTM was added and incubated overnight at 4° C.
Plates were washed 3 times with PBS+0.05% Tween 20 using a Tecan PW384. 20 μl of secondary antibody Alexa Fluor 488 anti-Rabbit (Molecular Probes, # A11008) diluted in PBS+0.05% Tween20 containing 1% Marvel™ was added to each well and incubated for 1 h at r.t. Plates were washed three times as before then 20 μl PBS added to each well and plates sealed with a black plate sealer.
The plates were read on an Acumen plate reader as soon as possible, measuring green fluorescence after excitation with 488 nm laser. Using this system IC50 values were generated and quality of plates was determined by control wells. Reference compounds were run each time to monitor assay performance.

ATM = biological target: T3, ATM (Homo sapiens, UniProt Q13315); experiment: ATM cellular potency assay (pATM Ser1981 in irradiated HT29 cells); details: 1 h compound, X-ray irradiation, pATM (Ser1981); Table 2; read-out: Assay a) ATM Cell IC50
T3 construct: endogenous in cells; host or cells: HT29 cells (ECACC #85061109)
Experimental: as §1
Most ATM molecules in the cell are rapidly phosphorylated on this site after doses of radiation as low as 0.5 Gy, and binding of a phosphospecific antibody is detectable after the introduction of only a few DNA double-strand breaks in the cell.
The rationale of the pATM assay is to identify inhibitors of ATM in cells. HT29 cells are incubated with test compounds for 1 h prior to X-ray-irradiation. 1 h later the cells are fixed and stained for pATM (Ser1981). The fluorescence is read on the arrayscan imaging platform.
The following morning compounds of Formula (I) in 100% DMSO were added to assay plates by acoustic dispensing. After 1 h incubation at 37° C. and 5% CO2, plates (up to 6 at a time) were irradiated using the X-RAD 320 instrument (PXi) with equivalent to 600 cGy. Plates were returned to the incubator for a further 1 h. Then cells were fixed by adding 20 μl of 3.7% formaldehyde in PBS solution and incubating for 20 minutes at r.t. before being washed with 50μl/well PBS, using a Biotek EL405 plate washer. Then 20 μl of 0.1% Triton X100 in PBS was added and incubated for 20 minutes at r.t., to permeabalise cells. Then the plates were washed once with 50 μl/well PBS, using a Biotek EL405 plate washer.
After 1 h incubation at r.t., the plates were washed three times with 50 μl/well PBS, using a Biotek EL405 plate washer, and plates were sealed and kept in PBS at 4° C. until read. Plates were read using an ArrayScan VTI instrument, using an XF53 filter with 10× objective.

T3 sequence (Q13315 whole entry): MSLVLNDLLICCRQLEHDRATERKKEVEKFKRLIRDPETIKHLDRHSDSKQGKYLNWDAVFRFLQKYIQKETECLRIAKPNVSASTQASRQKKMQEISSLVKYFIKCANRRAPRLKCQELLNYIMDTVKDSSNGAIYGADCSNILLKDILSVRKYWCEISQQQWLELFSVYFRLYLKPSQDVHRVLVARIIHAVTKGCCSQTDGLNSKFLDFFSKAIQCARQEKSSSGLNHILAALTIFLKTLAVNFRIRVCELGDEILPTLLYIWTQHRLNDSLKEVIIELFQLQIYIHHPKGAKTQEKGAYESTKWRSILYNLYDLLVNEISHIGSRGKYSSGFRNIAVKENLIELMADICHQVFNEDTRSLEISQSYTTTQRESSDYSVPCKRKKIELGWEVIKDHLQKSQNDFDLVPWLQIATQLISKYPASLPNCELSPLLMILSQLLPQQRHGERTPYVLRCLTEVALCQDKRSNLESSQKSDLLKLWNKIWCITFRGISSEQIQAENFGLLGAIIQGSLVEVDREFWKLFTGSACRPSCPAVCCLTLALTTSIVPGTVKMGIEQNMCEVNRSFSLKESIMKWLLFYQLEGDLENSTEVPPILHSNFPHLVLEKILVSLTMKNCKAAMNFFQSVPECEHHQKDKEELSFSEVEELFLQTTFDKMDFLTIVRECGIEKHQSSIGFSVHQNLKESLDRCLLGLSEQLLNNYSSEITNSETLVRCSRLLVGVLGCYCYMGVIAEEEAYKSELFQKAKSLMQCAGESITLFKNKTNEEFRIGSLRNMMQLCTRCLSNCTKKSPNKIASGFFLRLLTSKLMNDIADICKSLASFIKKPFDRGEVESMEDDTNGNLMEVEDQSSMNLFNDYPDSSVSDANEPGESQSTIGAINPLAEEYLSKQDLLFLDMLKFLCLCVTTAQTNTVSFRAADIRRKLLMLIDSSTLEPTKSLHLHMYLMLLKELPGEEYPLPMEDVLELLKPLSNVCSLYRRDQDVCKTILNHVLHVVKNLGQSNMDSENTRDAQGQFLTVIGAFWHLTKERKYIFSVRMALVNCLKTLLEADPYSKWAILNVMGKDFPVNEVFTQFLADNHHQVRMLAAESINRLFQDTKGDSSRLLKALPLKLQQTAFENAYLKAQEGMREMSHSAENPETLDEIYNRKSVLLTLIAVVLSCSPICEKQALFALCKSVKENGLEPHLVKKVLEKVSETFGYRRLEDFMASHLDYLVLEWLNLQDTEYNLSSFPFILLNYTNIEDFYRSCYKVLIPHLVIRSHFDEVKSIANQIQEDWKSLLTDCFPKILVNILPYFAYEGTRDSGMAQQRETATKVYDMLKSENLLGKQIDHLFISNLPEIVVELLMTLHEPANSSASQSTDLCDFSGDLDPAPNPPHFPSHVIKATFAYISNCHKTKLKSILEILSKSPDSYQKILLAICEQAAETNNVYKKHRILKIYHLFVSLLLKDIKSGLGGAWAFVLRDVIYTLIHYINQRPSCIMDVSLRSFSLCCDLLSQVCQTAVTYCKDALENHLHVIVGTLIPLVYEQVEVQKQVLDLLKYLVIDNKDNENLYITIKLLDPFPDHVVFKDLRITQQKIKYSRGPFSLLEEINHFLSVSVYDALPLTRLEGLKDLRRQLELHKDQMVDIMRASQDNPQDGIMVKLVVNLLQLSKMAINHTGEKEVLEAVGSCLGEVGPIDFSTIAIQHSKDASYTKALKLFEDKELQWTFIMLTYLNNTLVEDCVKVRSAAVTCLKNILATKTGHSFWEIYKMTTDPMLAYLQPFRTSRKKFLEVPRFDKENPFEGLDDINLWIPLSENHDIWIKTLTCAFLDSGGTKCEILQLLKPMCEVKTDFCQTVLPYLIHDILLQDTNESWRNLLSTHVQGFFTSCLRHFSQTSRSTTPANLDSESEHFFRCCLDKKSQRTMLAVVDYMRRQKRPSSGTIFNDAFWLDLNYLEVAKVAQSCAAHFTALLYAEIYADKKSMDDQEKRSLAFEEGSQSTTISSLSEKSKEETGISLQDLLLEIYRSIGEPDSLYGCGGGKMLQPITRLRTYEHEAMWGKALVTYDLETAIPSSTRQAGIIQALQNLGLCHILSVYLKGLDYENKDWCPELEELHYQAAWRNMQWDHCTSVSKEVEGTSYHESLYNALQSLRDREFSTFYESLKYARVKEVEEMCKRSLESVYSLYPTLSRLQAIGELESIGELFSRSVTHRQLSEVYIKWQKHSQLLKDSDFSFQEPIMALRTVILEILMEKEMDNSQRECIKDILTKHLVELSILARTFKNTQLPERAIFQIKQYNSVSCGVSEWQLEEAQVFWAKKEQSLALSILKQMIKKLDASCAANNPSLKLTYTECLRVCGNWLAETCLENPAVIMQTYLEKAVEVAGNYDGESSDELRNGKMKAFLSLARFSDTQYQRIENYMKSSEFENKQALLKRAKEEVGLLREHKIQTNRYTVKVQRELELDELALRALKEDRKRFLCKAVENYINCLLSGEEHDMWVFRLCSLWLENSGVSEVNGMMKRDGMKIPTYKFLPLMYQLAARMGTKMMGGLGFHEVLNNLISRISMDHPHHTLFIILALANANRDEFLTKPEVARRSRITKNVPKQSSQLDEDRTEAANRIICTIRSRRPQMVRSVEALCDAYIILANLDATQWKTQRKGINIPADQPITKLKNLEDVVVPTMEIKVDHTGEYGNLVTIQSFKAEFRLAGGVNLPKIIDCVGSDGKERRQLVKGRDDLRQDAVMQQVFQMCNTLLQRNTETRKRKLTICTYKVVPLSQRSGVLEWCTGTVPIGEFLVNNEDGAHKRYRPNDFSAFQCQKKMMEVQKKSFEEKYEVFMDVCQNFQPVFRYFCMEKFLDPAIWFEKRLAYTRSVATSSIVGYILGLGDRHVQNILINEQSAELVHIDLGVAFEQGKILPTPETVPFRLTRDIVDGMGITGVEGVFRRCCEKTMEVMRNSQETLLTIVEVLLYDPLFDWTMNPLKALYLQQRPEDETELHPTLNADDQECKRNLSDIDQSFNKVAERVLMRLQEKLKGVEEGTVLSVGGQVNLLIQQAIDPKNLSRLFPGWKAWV

SMILES	IC50 (ATR) [nM]	IC50 (mTOR) [nM]	IC50 (ATM) [nM]
CN(C)C1CCN(c2ccc(-c3ccc4ncc5c(c4c3)n([C@@H]3CCCOC3)c(=O)n5C)cn2)CC1 [Example 34, 8-[6-[4-(dimethylamino)-1-piperidyl]-3-pyridyl]-3-methyl-1-[(3R)-tetrahydropyran-3-yl]imidazo[4,5-c]quinolin-2-one]	> 30000	2000	0.395
CN(C)C1CCN(c2ccc(-c3ccc4ncc5c(c4c3)n([C@H]3CCCOC3)c(=O)n5C)cn2)CC1 [Example 35, 8-[6-[4-(dimethylamino)-1-piperidyl]-3-pyridyl]-3-methyl-1[(3S)-tetrahydropyran-3-yl]imidazo[4,5-c]quinolin-2-one]	> 30000	16500	1.4
CN(C)C1CCN(c2ccc(-c3cc4c(cc3F)ncc3c4n([C@@H]4CCCOC4)c(=O)n3C)cn2)CC1 [Example 40, 8-[6-[4-(dimethylamino)-1-piperidyl]-3-pyridyl]-7-fluoro-3-methyl-1-[(3R)-tetrahydropyran-3-yl]imidazo[4,5-c]quinolin-2-one]	> 30000	22100	3.24
